The subject of one experiment is HCV genotype 1b replicon. The experiment in a line: HCV replicon assay, cell ELISA with antibody to replicon-encoded NS3/4A (genotype 1b replicon). It is filed as cell-based, hepatitis C virus. The settings on record: Hepatitis C virus, 96 h, read-out: 1b IC50(nM), HCV genotype 1b replicon; 96 hours incubation; NS3/4A cell ELISA. The method in brief: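 Replicon-harbouring cells carrying neomycin phosphotransferase were incubated 96 h with a compound dilution series without G418. Replication was quantified indirectly by a cell ELISA detecting replicon-encoded NS3/4A. IC50 values were calculated relative to DMSO control with a four-parameter fit.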
(In general: Replicon systems follow genome replication, usually without infectious particles.)
As a reminder, the IC50 is the concentration that gives 50% inhibition. For `CNC(=O)c1c(-c2ccc(F)cc2)oc2cc(N(C)S(C)(=O)=O)c(-c3cccc(-c4cc5c(o4)CCN(C(C)=O)C5)c3)cc12` [Example 517], the IC50 amounted to 7 nM.

Consider `CNC(=O)c1c(-c2ccc(F)cc2)oc2cc(N(C)S(C)(=O)=O)c(C#Cc3ccccc3)cc12` [Example 547], for which the IC50 was 23.2 nM.

For `CNC(=O)c1c(-c2ccc(F)cc2)oc2cc(N(C)S(C)(=O)=O)c(-c3cccc(-n4nc5ccccc5c4-c4cccnc4)c3)cc12` [Example 549], the IC50 was 65.9 nM.

Take `CNC(=O)c1c(-c2ccc(F)cc2)oc2cc(N(C)S(C)(=O)=O)c(-c3ccc(OC)c(-c4nc5cc(F)cc(F)c5o4)c3)cc12` [Example 551]: the IC50 stood at 1.3 nM.

Regarding `CNC(=O)c1c(-c2ccc(F)cc2)oc2cc(N(C)S(C)(=O)=O)c(-c3cc(C#N)cc(-c4cc5ccccc5[nH]4)c3)cc12` [Example 558], the IC50 is 5.81 nM.

Take `CNC(=O)c1c(-c2ccc(F)cc2)oc2cc(N(C)S(C)(=O)=O)c(-c3ccc4c(c3)-c3c(Cl)c5ccccc5n3C(C3CC3)O4)cc12` (stereo not drawn) [Example 588]: the 50% inhibitory concentration (IC50) is 50.4 nM.

With `CNC(=O)c1c(-c2ccc(F)cc2)oc2cc(N(C)S(C)(=O)=O)c(-c3ccc4c(c3)-c3[nH]c5ccccc5c3C(c3cccnc3)O4)cc12` (stereo not drawn) [Example 589], the IC50 was 3.38 nM.

With `CNC(=O)c1c(-c2ccc(F)cc2)oc2cc(N(C)S(C)(=O)=O)c(-c3ccc4c(c3)-c3[nH]c5ccccc5c3C(C(C)(C)C)O4)cc12` (stereo not drawn) [Example 590], the IC50 is 44.1 nM.

For `CNC(=O)c1c(-c2ccc(F)cc2)oc2cc(N(C)S(C)(=O)=O)c(-c3cccc(-c4cc5cc(F)ccc5n4CCO)c3)cc12` [Example 598], the IC50 stood at 3.43 nM.

Take `CNC(=O)c1c(-c2ccc(F)cc2)oc2cc(N(C)S(C)(=O)=O)c(-c3ccc(O)c(-c4nc5c(F)cccc5o4)c3)cc12` [Example 606, 5-(3(4-fluorobenzo[d]oxazol-2-yl)-4-hydroxyphenyl)-2(4-fluorophenyl)-N-methyl-6-(N-methylmethylsulfonamido)benzofuran-3-carboxamide]: the IC50 turned out to be 9.32 nM.

In the case of `CNC(=O)c1c(-c2ccc(F)cc2)oc2cc(N(C)S(C)(=O)=O)c(-c3ccc(O)c(-c4nc5c(Cl)cccc5o4)c3)cc12` [Example 607], the IC50 was found to be 27.1 nM.

Take `CNC(=O)c1c(-c2ccc(F)cc2)oc2cc(N(C)S(C)(=O)=O)c(-c3cc(-c4nc5cccc(F)c5o4)ccc3O)cc12` [Example 611]: the IC50 was found to be 11.1 nM.

On to `CNC(=O)c1c(-c2ccc(F)cc2)oc2cc(N(C)S(C)(=O)=O)c(-c3ccc(OCCO)c(-c4nc5c(F)cccc5o4)c3)cc12` [Example 620], for which the IC50 is 1.66 nM.

Regarding `CNC(=O)c1c(-c2ccc(F)cc2)oc2cc(N(C)S(C)(=O)=O)c(-c3ccc(OCC(F)F)c(-c4cc5ccccc5[nH]4)c3)cc12` [Example 622], the IC50 was found to be 647 nM.

As to `CNC(=O)c1c(-c2ccc(F)cc2)oc2cc(N(C)S(C)(=O)=O)c(-c3cc(OS(C)(=O)=O)cc(-c4nc5c(F)cccc5o4)c3)cc12` [Example 627], the IC50 was determined as 1.4 nM.

Regarding `CNC(=O)c1c(-c2ccc(F)cc2)oc2cc(N(C)S(C)(=O)=O)c(-c3ccc(OC)c(-c4nc5cc(C(N)=O)ccc5o4)c3)cc12` [Example 632], the half-inhibitory concentration (IC50) came out at 4.61 nM.

On to `CNC(=O)c1c(-c2ccc(F)cc2)oc2cc(N(C)S(C)(=O)=O)c(-c3ccc(OC)c(-c4nc5c(C(=O)NC)cccc5o4)c3)cc12` [Example 637], for which the IC50 turned out to be 4.03 nM.

Regarding `CNC(=O)c1c(-c2ccc(F)cc2)oc2cc(N(C)S(C)(=O)=O)c(-c3ccc(OC)c(-c4nc5c(C(=O)Nc6ccccc6)cccc5o4)c3)cc12` [Example 638], the IC50 was determined as 29.8 nM.

For the molecule `CNC(=O)c1c(-c2ccc(F)cc2)oc2cc(N(C)S(C)(=O)=O)c(-c3cc(C(=O)O)cc(-c4nc5c(F)cccc5o4)c3)cc12` [Example 650, 3-(4-fluorobenzo[d]oxazol-2-yl)-5-(2-(4-fluorophenyl)-3-(methylcarbamoyl)-6-(N-methylmethylsulfonamido)benzofuran-5-yl)benzoic acid], the IC50 turned out to be 55.7 nM.

Consider `CNC(=O)c1c(-c2ccc(F)cc2)oc2cc(N(C)S(C)(=O)=O)c(-c3ccc(C(=O)O)c(-c4nc5c(F)cccc5o4)c3)cc12` [Example 651], for which the IC50 came to 155 nM.

On to `CNC(=O)c1cc(-c2nc3c(F)cccc3o2)cc(-c2cc3c(C(=O)NC)c(-c4ccc(F)cc4)oc3cc2N(C)S(C)(=O)=O)c1` [Example 654], for which the IC50 amounted to 3.65 nM.

Consider `CNC(=O)c1c(-c2ccc(F)cc2)oc2cc(N(C)S(C)(=O)=O)c(-c3ccc(C(=O)N(C)C)c(-c4nc5c(F)cccc5o4)c3)cc12` [Example 655], for which the IC50 worked out at 2.52 nM.

Regarding `CNC(=O)c1ccc(-c2cc3c(C(=O)NC)c(-c4ccc(F)cc4)oc3cc2N(C)S(C)(=O)=O)cc1-c1nc2c(F)cccc2o1` [Example 656], the IC50 was found to be 8.41 nM.

Consider `CNC(=O)c1c(-c2ccc(F)cc2)oc2cc(N(C)S(C)(=O)=O)c(-c3ccc(OC)c(-c4nc5ccc(-c6cncnc6)cc5o4)c3)cc12` [Example 658, 2-(4-fluorophenyl)-5-(4-methoxy-3-(6-(pyrimidin-5-yl)benzo[d]oxazol-2-yl)phenyl)-N-methyl-6-(N-methylmethylsulfonamido) benzofuran-3-carboxamide], for which the IC50 was determined as 8.53 nM.

As to `CNC(=O)c1c(-c2ccc(F)cc2)oc2cc(N(C)S(C)(=O)=O)c(-c3ccc(OC)c(-c4nc5ccc(-c6cccnc6)cc5o4)c3)cc12` [Example 659], the IC50 came out at 8.62 nM.

With `CNC(=O)c1c(-c2ccc(F)cc2)oc2cc(N(C)S(C)(=O)=O)c(-c3ccc(OC)c(-c4nc5cc(-c6cncnc6)ccc5o4)c3)cc12` [Example 663], the IC50 was 2.5 nM.

As for `CNC(=O)c1c(-c2ccc(F)cc2)oc2cc(N(C)S(C)(=O)=O)c(-c3cccc(-c4cc5c(F)cc(F)cc5s4)c3)cc12` [Example 685], the IC50 is 12 nM.

For `CNC(=O)c1c(-c2ccc(F)cc2)oc2cc(N(C)S(C)(=O)=O)c(-c3ccc(OC)c(-c4csc5ncccc45)c3)cc12` [Example 686], the IC50 worked out at 17.6 nM.

With `CNC(=O)c1c(-c2ccc(F)cc2)oc2cc(N(C)S(C)(=O)=O)c(-c3ccc(OC)c(-c4cc5ccc(F)cc5s4)c3)cc12` [Example 687], the IC50 was 27.3 nM.

On to `CNC(=O)c1c(-c2ccc(F)cc2)oc2cc(N(C)S(C)(=O)=O)c(-c3ccc(OC)c(-c4cc5ncccc5s4)c3)cc12` [Example 688], for which the IC50 was 7.53 nM.

As for `CNC(=O)c1c(-c2ccc(F)cc2)oc2cc(N(CC3CC(O)C3)S(C)(=O)=O)c(-c3ccc(OC)c(-c4nc5c(F)cccc5o4)c3)cc12` (stereo not drawn) [Example 701], the IC50 amounted to 6.21 nM.

On to `CNC(=O)c1c(-c2ccc(F)cc2)oc2cc(N(CC3CC3)S(C)(=O)=O)c(-c3ccc(OC)c(-c4nc5c(F)cc(F)cc5o4)c3)cc12` [Example 705], for which the IC50 is 15.6 nM.

Take `CNC(=O)c1c(-c2ccc(F)cc2)oc2cc(N(CC3CC3)S(C)(=O)=O)c(-c3ccc(OC)c(-c4nc5cc(F)cc(F)c5o4)c3)cc12` [Example 706]: the half-inhibitory concentration (IC50) is 16.7 nM.

For `CNC(=O)c1c(-c2ccc(F)cc2)oc2cc(N(Cc3cccnc3)S(C)(=O)=O)c(-c3ccc(OC)c(-c4nc5c(F)cccc5o4)c3)cc12` [Example 707], the IC50 came out at 4.93 nM.

Turning to `CNC(=O)c1c(-c2ccc(F)cc2)oc2cc(N(Cc3cccnc3)S(C)(=O)=O)c(-c3ccc(OC)c(-c4nc5c(C#N)cccc5o4)c3)cc12` [Example 708], the IC50 was 3.95 nM.

Consider `CNC(=O)c1c(-c2ccc(F)cc2)oc2cc(N(Cc3cccnc3)S(C)(=O)=O)c(-c3ccc(OC)c(-c4nc5c(F)cc(F)cc5o4)c3)cc12` [Example 709], for which the IC50 came to 6.05 nM.

For `CNC(=O)c1c(-c2ccc(F)cc2)oc2cc(N(CC3CCS(=O)(=O)C3)S(C)(=O)=O)c(-c3ccc(OC)c(-c4nc5c(F)cccc5o4)c3)cc12` (stereo not drawn) [Example 717], the IC50 was 2.84 nM.

As for `CNC(=O)c1c(-c2ccc(F)cc2)oc2cc(N(CC3CCS(=O)(=O)C3)S(C)(=O)=O)c(-c3ccc(OC)c(-c4nc5c(F)cc(F)cc5o4)c3)cc12` (stereo not drawn) [Example 718], the IC50 was 3.9 nM.

For `CNC(=O)c1c(-c2ccc(F)cc2)oc2cc(N(CC3CCS(=O)(=O)C3)S(C)(=O)=O)c(-c3cccc(-c4nc5ncccc5o4)c3)cc12` (stereo not drawn) [Example 719], the IC50 was 3.14 nM.

With `CNC(=O)c1c(-c2ccc(F)cc2)oc2cc(N(C3COC3)S(C)(=O)=O)c(-c3ccc(OC)c(-c4nc5c(F)cccc5o4)c3)cc12` [Example 720], the IC50 was determined as 41.6 nM.

Regarding `CNC(=O)c1c(-c2ccc(F)cc2)oc2cc(N(C3COC3)S(C)(=O)=O)c(-c3ccc(OC)c(-c4nc5c(F)cc(F)cc5o4)c3)cc12` [Example 721], the concentration for half-maximal inhibition (IC50) came to 4.94 nM.

In the case of `CNC(=O)c1c(-c2ccc(F)cc2)oc2cc(N(C3COC3)S(C)(=O)=O)c(-c3ccc(OC)c(-c4nc5c(C#N)cccc5o4)c3)cc12` [Example 722], the IC50 worked out at 3.03 nM.

On to `CNC(=O)c1c(-c2ccc(F)cc2)oc2cc(N(CC3(C)COC3)S(C)(=O)=O)c(-c3cccc(-c4nc5ncccc5o4)c3)cc12` [Example 723], for which the IC50 worked out at 2.31 nM.

Take `CNC(=O)c1c(-c2ccc(F)cc2)oc2cc(N(CC3(C)COC3)S(C)(=O)=O)c(-c3ccc(OC)c(-c4nc5c(F)cccc5o4)c3)cc12` [Example 724]: the IC50 came to 4.47 nM.

`CNC(=O)c1c(-c2ccc(F)cc2)oc2cc(N(CC3(C)COC3)S(C)(=O)=O)c(-c3ccc(OC)c(-c4nc5c(F)cc(F)cc5o4)c3)cc12` [Example 725]: the IC50 was determined as 10.5 nM.

As to `CNC(=O)c1c(-c2ccc(F)cc2)oc2cc(N(C3CCOC3)S(C)(=O)=O)c(-c3ccc(OC)c(-c4nc5c(F)cccc5o4)c3)cc12` (stereo not drawn) [Example 726], the IC50 was found to be 5.54 nM.

As for `CNC(=O)c1c(-c2ccc(F)cc2)oc2cc(N(CC3CCOC3)S(C)(=O)=O)c(-c3ccc(OC)c(-c4nc5c(F)cc(F)cc5o4)c3)cc12` (stereo not drawn) [Example 729], the IC50 is 3.3 nM.

Staying with this experiment, now noted: read-out: 1b IC50; HCV genotype 1b replicon; 96 hours incubation; NS3/4A cell ELISA.
In the case of `CNC(=O)c1c(-c2ccc(F)cc2)oc2cc(N(CCF)S(C)(=O)=O)c(-c3cccc(-c4nc5ncccc5o4)c3)cc12` [Example 581], the IC50 came out at 0.5 nM.
